Experimental data reported in patent US20240228448A1 (Washington University, priority 2021, published 2024).
Where two headings read alike, the source gives them in different places.

Assays:
S1P1 = S1P1 (Homo sapiens, UniProt P21453); assay: competitive S1Ps cell membrane binding assay against [32P]S1P, S1P1
Description: (§1) One way to measure affinity is use of a general competition binding assay.

S1P5 = S1P5 (Homo sapiens, UniProt Q9H228); assay: competitive S1Ps cell membrane binding assay against [32P]S1P, S1P5; details: Table 5; read-out: IC50 (nM) S1P5
Description: as §1

S1P2-5 = assay: competitive S1Ps cell membrane binding assay against [32P]S1P, S1P2-5 reported together; details: Table 7; read-out: IC50 (nM) S1P2-5
Description: as §1

S1P3 = S1P3 (Homo sapiens, UniProt Q99500); assay: competitive S1Ps cell membrane binding assay against [32P]S1P, S1P3; details: Table 6
S1P4 = biological target: T1, S1P4 (Homo sapiens, UniProt O95977); assay: competitive S1Ps cell membrane binding assay against [32P]S1P, S1P4; details: Table 6; read-out: IC50 for S1P4
T1 sequence (O95977 1-384): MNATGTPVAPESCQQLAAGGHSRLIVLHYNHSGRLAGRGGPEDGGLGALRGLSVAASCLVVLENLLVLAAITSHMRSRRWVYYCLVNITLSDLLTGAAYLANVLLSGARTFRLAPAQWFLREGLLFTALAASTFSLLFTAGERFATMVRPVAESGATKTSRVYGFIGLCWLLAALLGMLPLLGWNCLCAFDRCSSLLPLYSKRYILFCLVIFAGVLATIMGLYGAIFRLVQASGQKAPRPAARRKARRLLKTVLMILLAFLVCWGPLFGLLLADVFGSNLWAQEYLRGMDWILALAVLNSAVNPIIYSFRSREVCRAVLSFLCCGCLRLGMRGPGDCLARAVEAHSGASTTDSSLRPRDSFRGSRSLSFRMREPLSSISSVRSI

S1P2 = S1P2 (Homo sapiens, UniProt O95136); assay: competitive S1Ps cell membrane binding assay against [32P]S1P, S1P2; details: Table 6
[1] = read-out: IC50 (nM) S1P1, Table 5

Sequence of S1P5 (Q9H228 whole entry, species assumed): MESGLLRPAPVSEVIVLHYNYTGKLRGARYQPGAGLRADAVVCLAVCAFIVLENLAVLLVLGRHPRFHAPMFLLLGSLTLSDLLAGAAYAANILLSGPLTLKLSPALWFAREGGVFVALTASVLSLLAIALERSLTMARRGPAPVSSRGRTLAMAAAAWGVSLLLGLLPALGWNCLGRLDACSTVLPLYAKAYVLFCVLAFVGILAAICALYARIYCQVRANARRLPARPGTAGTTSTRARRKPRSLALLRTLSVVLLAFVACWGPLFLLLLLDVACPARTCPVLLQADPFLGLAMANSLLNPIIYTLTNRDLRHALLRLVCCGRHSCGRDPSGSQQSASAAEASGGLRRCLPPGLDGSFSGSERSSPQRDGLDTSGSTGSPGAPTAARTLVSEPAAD
Sequence of S1P1 (P21453 whole entry, species assumed): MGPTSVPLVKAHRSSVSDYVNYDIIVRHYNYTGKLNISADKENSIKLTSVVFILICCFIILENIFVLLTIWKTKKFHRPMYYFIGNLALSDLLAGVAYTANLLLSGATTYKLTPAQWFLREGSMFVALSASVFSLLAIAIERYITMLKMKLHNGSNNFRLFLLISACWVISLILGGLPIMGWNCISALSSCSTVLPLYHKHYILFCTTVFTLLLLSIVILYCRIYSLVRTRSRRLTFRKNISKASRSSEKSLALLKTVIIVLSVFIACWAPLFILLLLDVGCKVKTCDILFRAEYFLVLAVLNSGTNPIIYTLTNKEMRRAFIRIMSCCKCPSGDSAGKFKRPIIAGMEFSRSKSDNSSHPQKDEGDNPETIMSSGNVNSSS
Sequence of S1P2 (O95136 whole entry, species assumed): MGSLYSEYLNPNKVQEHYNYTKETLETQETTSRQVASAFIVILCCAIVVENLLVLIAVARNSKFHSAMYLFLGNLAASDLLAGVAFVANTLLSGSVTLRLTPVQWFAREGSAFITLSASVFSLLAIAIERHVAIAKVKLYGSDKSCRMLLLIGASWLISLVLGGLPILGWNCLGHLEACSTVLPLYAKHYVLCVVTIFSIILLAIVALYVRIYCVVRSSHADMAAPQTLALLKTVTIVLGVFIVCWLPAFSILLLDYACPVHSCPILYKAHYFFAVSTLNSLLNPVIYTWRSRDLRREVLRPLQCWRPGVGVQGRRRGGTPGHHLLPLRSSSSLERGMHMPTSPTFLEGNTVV
Sequence of S1P3 (Q99500 whole entry, species assumed): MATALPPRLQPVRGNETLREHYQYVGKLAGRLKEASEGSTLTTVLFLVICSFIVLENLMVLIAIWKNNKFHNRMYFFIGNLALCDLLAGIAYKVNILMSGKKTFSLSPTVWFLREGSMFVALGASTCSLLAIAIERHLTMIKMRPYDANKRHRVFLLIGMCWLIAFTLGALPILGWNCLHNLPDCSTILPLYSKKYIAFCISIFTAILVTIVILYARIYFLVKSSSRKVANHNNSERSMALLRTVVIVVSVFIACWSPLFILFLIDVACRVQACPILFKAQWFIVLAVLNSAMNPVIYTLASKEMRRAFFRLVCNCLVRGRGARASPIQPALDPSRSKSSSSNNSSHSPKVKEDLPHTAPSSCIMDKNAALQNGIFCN

SMILES	IC50 (S1P1; IC50 (nM) S1P1, Table 5) [nM]	IC50 (S1P5) [nM]	further results
Cc1ccccc1-c1ccc(-c2nc(-c3ccc(CN(C)CCS(=O)(=O)O)c(F)c3)no2)cc1C(F)(F)F [TZ82-101]	2.3		
CN(CCC(=O)O)Cc1ccc(-c2noc(-c3ccc(OCc4cccc(F)n4)c(C(F)(F)F)c3)n2)cc1F [TZ82-56]	55.4	39.3	
Cc1ccccc1-c1ccc(-c2nc(-c3cccc4[nH]ccc34)no2)cc1C(F)(F)F [TZ82-4]	1.1 ± 0.1	28.4	
Nc1cccc(-c2noc(-c3ccc(OCCF)c(C(F)(F)F)c3)n2)c1 [TZ82-42]	29 ± 0.5		
CN(CCC(=O)O)Cc1ccc(-c2noc(-c3ccc(OCc4cccnc4F)c(C(F)(F)F)c3)n2)cc1F [TZ82-55]	159	74.4	
Cc1ccccc1-c1ccc(-c2nc(-c3ccc(CNCCCO)c(F)c3)no2)cc1C(F)(F)F [TZ82-95]		12.8	IC50 (S1P1; [1]): 2.1 nM
OCCOCc1ccc(-c2noc(-c3ccc(OCCF)c(C(F)(F)F)c3)n2)cc1 [TZ48-77]			IC50 (S1P2-5): > 1000 nM
CNc1cccc(-c2noc(-c3ccc(OCCF)c(C(F)(F)F)c3)n2)c1 [TZ82-41]	82 ± 1.8		
OC(c1ccc(-c2noc(-c3ccc(OCCF)c(C(F)(F)F)c3)n2)cc1)C(F)(F)F (stereo not shown) [TZ73-27]	15 ± 2.6		
Cc1ccccc1-c1ccc(-c2nc(-c3ccc(CN(C)CCO)c(F)c3)no2)cc1C(F)(F)F [TZ82-51]			IC50 (S1P3): 454 nM; IC50 (S1P4): > 1000 nM; IC50 (S1P2): > 1000 nM
Nc1ccc(-c2noc(-c3ccc(OCCF)c(C(F)(F)F)c3)n2)cc1 [TZ82-43]	44 ± 0.6		
OCc1ccc(-c2noc(-c3ccc(OCc4cccnc4F)c(C(F)(F)F)c3)n2)cc1 [TZ82-91]	239	182	
Cc1ccccc1-c1ccc(-c2nc(-c3ccc(CNO)c(F)c3)no2)cc1C(F)(F)F [TZ82-105]	8.7		
CNCc1ccc(-c2noc(-c3ccc(OCCF)c(C(F)(F)F)c3)n2)cc1F [TZ82-110]	13.4		
Cc1ccccc1-c1ccc(-c2nc(-c3ccc(CN(C)CCC(=O)O)c(Br)c3)no2)cc1C(F)(F)F [TZ82-65]	2.1	11	
Cc1ccccc1-c1ccc(-c2nc(-c3ccc(COCCO)c(I)c3)no2)cc1C(F)(F)F [TZ73-127]	66.3		
OCCOCc1ccc(-c2noc(-c3ccc(OCCF)c(C(F)(F)F)c3)n2)cc1I [TZ73-126]	118		
OCc1ccc(-c2noc(-c3ccc(OCCF)c(C(F)(F)F)c3)n2)cc1F [TZ67-138]			IC50 (S1P2-5): > 1000 nM
CN(CCC(=O)O)Cc1ccc(-c2noc(-c3ccc(OCCF)c(C(F)(F)F)c3)n2)cc1I [TZ73-147]			IC50 (S1P1; [1]): 33.1 ± 11.1 nM
Cc1ccccc1-c1ccc(-c2nc(-c3ccc(CO)c(F)c3)no2)cc1C(F)F [TZ82-26]	2.9	85.2	
Cc1ccccc1-c1ccc(-c2nc(-c3ccc(CN(C)CCNC(=O)OC(C)(C)C)c(F)c3)no2)cc1C(F)(F)F [TZ82-102]	23.8		
Cc1ccccc1-c1ccc(-c2nc(-c3ccc(CCCCO)cc3)no2)cc1C(F)(F)F [TZ82-2]	9.8	764	
CN(CCCO)Cc1ccc(-c2noc(-c3ccc(OCCF)c(C(F)(F)F)c3)n2)cc1 [TZ82-124]		450	
Cc1ccccc1-c1ccc(-c2nc(-c3ccc(CNCCC(=O)O)c(F)c3)no2)cc1C(F)(F)F [TZ82-94]	0.7	7.2	
Cc1ccccc1-c1ccc(-c2nc(-c3ccc(COCCCCCO)c(F)c3)no2)cc1C(F)(F)F [TZ82-29]	4.9		IC50 (S1P2-5): > 1000 nM; IC50 (S1P1; IC50 (nM) S1P1, Table 7): 16.1 ± 0.3 nM
OCCn1ccc2ccc(-c3noc(-c4ccc(OCCF)c(C(F)(F)F)c4)n3)cc21 [TZ73-14]	157 ± 24		
FCCOc1ccc(-c2nc(-c3ccc4[nH]cnc4c3)no2)cc1C(F)(F)F [TZ82-36]	57 ± 7.6		
